# Columns and labels:
# Type in all cases: biochemical
# [1] = target: Zea mays EPSPS variant WT-FS-B (103I 107S 278G 338S) (Zea mays, UniProt O24566, A337S/P106S/T102I/T277G); assay: EPSPS substrate saturation kinetics, WT-FS-B
# Protocol: (§1) EPSPS activity was determined by quantifying the phosphate generated from the EPSPS reaction. Release of inorganic phosphate was coupled to reaction with 2-amino-6-mercapto-7-methylpurine ribonucleoside, catalyzed by purine-nucleoside phosphorylase (M R Webb, Proc. Natl. Acad. Sci. 89:4884-4887, 1992). The absorbance change that occurs was monitored at 360 nm, where the extinction is 11,200 M^−1 cm^−1, with a Spectramax plate reader (Molecular Devices). To determine kinetic parameters, the varied substrate was present at seven concentrations (the eighth being the blank, containing no substrate) ranging from 4 to 400 uM and the unvaried substrate present at saturation. […] Reactions were monitored with a Spectramax plate reader. […] KI was then calculated from the following form of the Michaelis-Menten equation for competitive inhibition: KI=KM[I]/(KM app−KM) KM approximates the dissociation constant of the enzyme-substrate complex while kcat is the rate of conversion of substrate to product when the substrate concentration is saturating. kcat/KM is a widely accepted parameter for catalytic efficiency when substrate concentration is low (˜KM). […] The parameter kcat/KM×KI is used to quantify both catalytic efficiency and insensitivity and thus the overall fitness of the enzyme. […]
# [2] = target: T1, Zea mays EPSPS variant Zm-H6 (868-H6) with K246G (H6-K246G) (Zea mays, UniProt O24566, A1R/A3W/A415G/A71Q/D401G/E301S/E390G/G101A/I207L/K245G/K83R/L97C/T278A/T360S/T440Q/V437R); assay: Rapid two-rate method for (kcat/KM)*KI, H6-K246G; conditions: [E] 0.07 uM, [Gly] 1000 uM
# T1 construct: 868-H6 plus K246G; E. coli BL21(DE3), Ni-NTA purified
# T1 sequence (O24566 with tags, fused parts or gaps A1R/A3W/A71Q/K83R/L97C/G101A/I207L/K245G/T278A/E301S/T360S/E390G/D401G/A415G/V437R/T440Q): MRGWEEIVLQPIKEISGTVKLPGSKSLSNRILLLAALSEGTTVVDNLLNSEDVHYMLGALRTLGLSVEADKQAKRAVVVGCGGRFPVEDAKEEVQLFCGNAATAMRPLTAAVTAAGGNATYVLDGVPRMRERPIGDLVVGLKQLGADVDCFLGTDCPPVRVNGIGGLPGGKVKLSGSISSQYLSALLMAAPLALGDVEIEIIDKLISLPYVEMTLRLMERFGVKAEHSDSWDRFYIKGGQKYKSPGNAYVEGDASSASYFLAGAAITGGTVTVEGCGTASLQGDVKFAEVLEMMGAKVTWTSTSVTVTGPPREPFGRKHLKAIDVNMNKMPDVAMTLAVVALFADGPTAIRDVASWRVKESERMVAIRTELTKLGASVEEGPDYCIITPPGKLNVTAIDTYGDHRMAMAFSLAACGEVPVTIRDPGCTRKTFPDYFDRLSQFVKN
# Text: There are several practical considerations for accurately estimating (kcat/KM)*KI with the rapid method. […] 2) The inhibitor concentration must be adjusted so as to obtain a degree of inhibition that minimally amplifies the error in the term v0-vi in Equation 3. If inhibition is too little, v0-vi will be small, and the error in the multiplier vi×v0/(v0-vi) will be large. […] 3) Substrate concentration should be set at the approximate KM of the parental variant(s), subject to the sensitivity of the assay. High substrate concentration obscures sensitivity to the inhibitor and reduces stringency for capturing improvements in KM. Depending on the necessity for speed, there exists opportunity for customizing enzyme and inhibitor concentrations. […] The rapid method was repeated for those and obtained data that correlated better with data obtained by substrate saturation analysis. For screening purposes however, that correlation step is not necessary. Conditions can be set so that variants with a pre-determined minimal fitness level are accurately quantified.
# In Table 15, parameters above the heavy line for the rapid method were obtained under standard conditions. For variants shown below the heavy line, the rapid analysis was repeated with enzyme or glyphosate concentrations adjusted as needed to generate sufficient signal within the limits for linear initial rates.
# [3] = target: Zea mays EPSPS variant 123-C1 (A2R, A4W, K84R, L98C, G102A, I208L, K243E, E391P, D402G), SEQ ID NO:6 (Zea mays, UniProt O24566, A1R/A3W/D401G/E390P/G101A/I207L/K242E/K83R/L97C); assay: EPSPS substrate saturation kinetics, 123-C1
# Protocol: as §1
# [4] = PEP as substrate, glyphosate as inhibitor
# Chain of Zea mays EPSPS variant WT-FS-B (103I 107S 278G 338S) (O24566 entry or part of it T102I/P106S/T277G/A337S): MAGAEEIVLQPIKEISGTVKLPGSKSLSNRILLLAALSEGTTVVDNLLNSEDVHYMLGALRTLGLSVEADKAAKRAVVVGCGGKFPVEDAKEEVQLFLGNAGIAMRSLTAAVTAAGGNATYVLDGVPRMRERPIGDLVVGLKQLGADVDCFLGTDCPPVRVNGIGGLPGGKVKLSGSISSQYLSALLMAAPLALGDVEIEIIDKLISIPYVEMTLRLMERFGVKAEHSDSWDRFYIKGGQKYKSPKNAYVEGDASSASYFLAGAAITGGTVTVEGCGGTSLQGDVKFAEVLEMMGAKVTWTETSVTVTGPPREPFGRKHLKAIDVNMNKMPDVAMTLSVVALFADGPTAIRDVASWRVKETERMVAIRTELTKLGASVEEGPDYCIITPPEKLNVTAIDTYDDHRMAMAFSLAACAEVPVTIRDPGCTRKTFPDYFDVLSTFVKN
# Chain of Zea mays EPSPS variant 123-C1 (A2R, A4W, K84R, L98C, G102A, I208L, K243E, E391P, D402G), SEQ ID NO:6 (O24566 entry or part of it A1R/A3W/K83R/L97C/G101A/I207L/K242E/E390P/D401G): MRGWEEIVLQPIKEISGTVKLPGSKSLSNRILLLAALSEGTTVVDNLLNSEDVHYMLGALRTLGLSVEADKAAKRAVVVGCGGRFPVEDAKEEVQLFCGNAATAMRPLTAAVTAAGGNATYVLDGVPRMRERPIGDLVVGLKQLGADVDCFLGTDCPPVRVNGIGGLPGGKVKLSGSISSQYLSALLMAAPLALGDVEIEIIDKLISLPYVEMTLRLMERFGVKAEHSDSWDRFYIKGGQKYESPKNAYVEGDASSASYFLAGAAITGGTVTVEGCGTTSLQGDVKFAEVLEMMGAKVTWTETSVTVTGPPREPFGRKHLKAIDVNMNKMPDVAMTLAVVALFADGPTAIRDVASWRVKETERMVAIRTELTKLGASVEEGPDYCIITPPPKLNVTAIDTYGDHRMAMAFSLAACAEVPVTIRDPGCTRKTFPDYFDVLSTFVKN
compound,measurement,setting,value
"O=C(O)CNCP(=O)(O)O [glyphosate, N-phosphonomethylglycine]",Ki,[1],552 µM
same,(kcat/KM)*KI,[1]; [4],1971
same,(kcat/KM)*KI,[2],3495
same,Ki,[3],559 µM
same,(kcat/KM)*KI,[3]; [4],10100

# Reference: patent US11549123B2, “Plant EPSP synthases and methods of use” (PIONEER HI-BRED INTERNATIONAL, INC., priority 2015, dated 2023)
